Test results from article PMC10408569, “Recruitment of hexahydroquinoline as anticancer scaffold targeting inhibition of wild and mutants EGFR (EGFR^WT, EGFR^T790M, and EGFR^L858R)” (Journal of Enzyme Inhibition and Medicinal Chemistry, 2023).

Assays:
RPMI-8226 = experiment: NCI-60 anticancer screening (SRB); type: cell-based; conditions: Homo sapiens; for inhibition at 10 µM: RPMI-8226, leukemia, one dose 10 μM, read-out: Growth Inhibition Percentage (GI %)
SR = experiment: NCI-60 anticancer screening (SRB); type: cell-based; conditions: Homo sapiens; for inhibition at 10 µM: leukemia, one dose 10 μM, read-out: Growth Inhibition Percentage (GI %)
A549/ATCC = experiment: NCI-60 anticancer screening (SRB); type: cell-based; conditions: Homo sapiens; for inhibition at 10 µM: A549/ATCC, NSC lung cancer, one dose 10 μM, read-out: Growth Inhibition Percentage (GI %)
HOP-62 = experiment: NCI-60 anticancer screening (SRB); type: cell-based; conditions: Homo sapiens; for inhibition at 10 µM: HOP-62, NSC lung cancer, one dose 10 μM, read-out: Growth Inhibition Percentage (GI %)
NCI-H322M = experiment: NCI-60 anticancer screening (SRB); type: cell-based; conditions: Homo sapiens; for inhibition at 10 µM: NSC lung cancer, one dose 10 μM, read-out: Growth Inhibition Percentage (GI %)
NCI-H460 = experiment: NCI-60 anticancer screening (SRB); type: cell-based; conditions: Homo sapiens; for inhibition at 10 µM: NCI-H460, NSC lung cancer, one dose 10 μM, read-out: Growth Inhibition Percentage (GI %)
HCC-2998 = experiment: NCI-60 anticancer screening (SRB); type: cell-based; conditions: Homo sapiens; for inhibition at 10 µM: HCC-2998, colon cancer, one dose 10 μM, read-out: Growth Inhibition Percentage (GI %)
HCT-116 = experiment: NCI-60 anticancer screening (SRB); type: cell-based; conditions: Homo sapiens; for inhibition at 10 µM: HCT-116, colon cancer, one dose 10 μM, read-out: Growth Inhibition Percentage (GI %)
HCT-15 = experiment: NCI-60 anticancer screening (SRB); type: cell-based; conditions: Homo sapiens; for inhibition at 10 µM: HCT-15, colon cancer, one dose 10 μM, read-out: Growth Inhibition Percentage (GI %)
HT29 = experiment: NCI-60 anticancer screening (SRB); type: cell-based; conditions: Homo sapiens, HT-29; for inhibition at 10 µM: HT29, colon cancer, one dose 10 μM, read-out: Growth Inhibition Percentage (GI %)
KM 12 = experiment: NCI-60 anticancer screening (SRB); type: cell-based; conditions: Homo sapiens, KM12; for inhibition at 10 µM: KM 12, colon cancer, one dose 10 μM, read-out: Growth Inhibition Percentage (GI %)
SW-620 = experiment: NCI-60 anticancer screening (SRB); type: cell-based; conditions: Homo sapiens; for inhibition at 10 µM: SW-620, colon cancer, one dose 10 μM, read-out: Growth Inhibition Percentage (GI %)
SF-539 = experiment: NCI-60 anticancer screening (SRB); type: cell-based; conditions: Homo sapiens; for inhibition at 10 µM: SF-539, CNS cancer, one dose 10 μM, read-out: Growth Inhibition Percentage (GI %)
SNB-19 = experiment: NCI-60 anticancer screening (SRB); type: cell-based; conditions: Homo sapiens; for inhibition at 10 µM: SNB-19, CNS cancer, one dose 10 μM, read-out: Growth Inhibition Percentage (GI %)
MDA-MB-435 = experiment: NCI-60 anticancer screening (SRB); type: cell-based; conditions: Homo sapiens; for inhibition at 10 µM: MDA-MB-435, melanoma, one dose 10 μM, read-out: Growth Inhibition Percentage (GI %)
SK-MEL-5 = experiment: NCI-60 anticancer screening (SRB); type: cell-based; conditions: Homo sapiens; for inhibition at 10 µM: SK-MEL-5, melanoma, one dose 10 μM, read-out: Growth Inhibition Percentage (GI %)
UACC-257 = experiment: NCI-60 anticancer screening (SRB); type: cell-based; conditions: Homo sapiens; for inhibition at 10 µM: UACC-257, melanoma, one dose 10 μM, read-out: Growth Inhibition Percentage (GI %)
IGROV1 = experiment: NCI-60 anticancer screening (SRB); type: cell-based; conditions: Homo sapiens, IGROV-1; for inhibition at 10 µM: IGROV1, ovarian cancer, one dose 10 μM, read-out: Growth Inhibition Percentage (GI %)
OVCAR-5 = experiment: NCI-60 anticancer screening (SRB); type: cell-based; conditions: Homo sapiens; for inhibition at 10 µM: OVCAR-5, ovarian cancer, one dose 10 μM, read-out: Growth Inhibition Percentage (GI %)
SK-OV-3 = experiment: NCI-60 anticancer screening (SRB); type: cell-based; conditions: Homo sapiens; for inhibition at 10 µM: SK-OV-3, ovarian cancer, one dose 10 μM, read-out: Growth Inhibition Percentage (GI %)
ACHN = experiment: NCI-60 anticancer screening (SRB); type: cell-based; conditions: Homo sapiens; for inhibition at 10 µM: renal cancer, one dose 10 μM, read-out: Growth Inhibition Percentage (GI %)
RXF 393 = experiment: NCI-60 anticancer screening (SRB); type: cell-based; conditions: Homo sapiens; for inhibition at 10 µM: RXF 393, renal cancer, one dose 10 μM, read-out: Growth Inhibition Percentage (GI %)
SN 12C = experiment: NCI-60 anticancer screening (SRB); type: cell-based; conditions: Homo sapiens, SN12C; for inhibition at 10 µM: SN 12C, renal cancer, one dose 10 μM, read-out: Growth Inhibition Percentage (GI %)
PC-3 = experiment: NCI-60 anticancer screening (SRB); type: cell-based; conditions: Homo sapiens; for inhibition at 10 µM: PC-3, prostate cancer, one dose 10 μM, read-out: Growth Inhibition Percentage (GI %)
MDA-MB-231 = experiment: NCI-60 anticancer screening (SRB); type: cell-based; conditions: Homo sapiens; for inhibition at 10 µM: MDA-MB-231, breast cancer, one dose 10 μM, read-out: Growth Inhibition Percentage (GI %)
T-47D = experiment: NCI-60 anticancer screening (SRB); type: cell-based; conditions: Homo sapiens, T47D; for inhibition at 10 µM: breast cancer, one dose 10 μM, read-out: Growth Inhibition Percentage (GI %)
NCI 60 cancer cell lines = experiment: NCI-60 anticancer screening (SRB), whole panel; type: cell-based, human; conditions: for GI % mean: mean across the NCI-60 panel, one dose 10 μM
EGFR^T790M = EGFR^T790M (Homo sapiens, UniProt P00533, T790M); experiment: biochemical
EGFR^L858R = EGFR^L858R (Homo sapiens, UniProt P00533, L858R); experiment: biochemical
EGFR^WT = EGFR^WT (Homo sapiens, UniProt P00533); experiment: EGFR kinase inhibitory assay (HTRF)
Chain of EGFR^WT (P00533 25-1210): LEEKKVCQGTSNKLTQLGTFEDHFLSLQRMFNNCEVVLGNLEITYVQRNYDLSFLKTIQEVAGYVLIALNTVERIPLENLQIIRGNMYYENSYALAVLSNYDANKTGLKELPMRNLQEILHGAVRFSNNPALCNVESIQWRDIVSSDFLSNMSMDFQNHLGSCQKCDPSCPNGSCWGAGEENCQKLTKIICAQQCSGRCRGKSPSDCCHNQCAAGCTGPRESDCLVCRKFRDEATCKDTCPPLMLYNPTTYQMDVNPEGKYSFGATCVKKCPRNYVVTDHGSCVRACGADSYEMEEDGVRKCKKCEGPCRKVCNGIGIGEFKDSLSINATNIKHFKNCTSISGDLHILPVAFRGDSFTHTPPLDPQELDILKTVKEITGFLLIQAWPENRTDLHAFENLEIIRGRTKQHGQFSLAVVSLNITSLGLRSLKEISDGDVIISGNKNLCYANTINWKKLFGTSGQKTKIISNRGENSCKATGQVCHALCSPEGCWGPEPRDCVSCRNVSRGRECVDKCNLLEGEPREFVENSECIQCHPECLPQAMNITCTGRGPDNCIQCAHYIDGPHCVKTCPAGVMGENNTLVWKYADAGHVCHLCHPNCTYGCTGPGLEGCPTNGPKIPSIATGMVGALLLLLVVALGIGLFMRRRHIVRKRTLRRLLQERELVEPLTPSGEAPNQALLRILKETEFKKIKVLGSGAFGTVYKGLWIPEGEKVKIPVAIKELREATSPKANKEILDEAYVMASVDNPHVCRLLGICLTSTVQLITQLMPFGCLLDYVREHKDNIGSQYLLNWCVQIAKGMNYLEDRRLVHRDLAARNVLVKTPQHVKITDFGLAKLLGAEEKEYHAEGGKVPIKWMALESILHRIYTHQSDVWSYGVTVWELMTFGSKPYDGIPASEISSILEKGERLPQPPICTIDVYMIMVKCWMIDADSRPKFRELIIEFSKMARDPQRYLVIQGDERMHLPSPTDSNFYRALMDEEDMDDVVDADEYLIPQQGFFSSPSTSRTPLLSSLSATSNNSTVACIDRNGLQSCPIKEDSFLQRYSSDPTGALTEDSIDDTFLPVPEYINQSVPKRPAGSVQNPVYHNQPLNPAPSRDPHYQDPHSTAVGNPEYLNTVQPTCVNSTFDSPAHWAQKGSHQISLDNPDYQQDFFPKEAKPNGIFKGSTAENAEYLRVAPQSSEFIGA

Chain of EGFR^T790M (P00533 25-1210 T790M): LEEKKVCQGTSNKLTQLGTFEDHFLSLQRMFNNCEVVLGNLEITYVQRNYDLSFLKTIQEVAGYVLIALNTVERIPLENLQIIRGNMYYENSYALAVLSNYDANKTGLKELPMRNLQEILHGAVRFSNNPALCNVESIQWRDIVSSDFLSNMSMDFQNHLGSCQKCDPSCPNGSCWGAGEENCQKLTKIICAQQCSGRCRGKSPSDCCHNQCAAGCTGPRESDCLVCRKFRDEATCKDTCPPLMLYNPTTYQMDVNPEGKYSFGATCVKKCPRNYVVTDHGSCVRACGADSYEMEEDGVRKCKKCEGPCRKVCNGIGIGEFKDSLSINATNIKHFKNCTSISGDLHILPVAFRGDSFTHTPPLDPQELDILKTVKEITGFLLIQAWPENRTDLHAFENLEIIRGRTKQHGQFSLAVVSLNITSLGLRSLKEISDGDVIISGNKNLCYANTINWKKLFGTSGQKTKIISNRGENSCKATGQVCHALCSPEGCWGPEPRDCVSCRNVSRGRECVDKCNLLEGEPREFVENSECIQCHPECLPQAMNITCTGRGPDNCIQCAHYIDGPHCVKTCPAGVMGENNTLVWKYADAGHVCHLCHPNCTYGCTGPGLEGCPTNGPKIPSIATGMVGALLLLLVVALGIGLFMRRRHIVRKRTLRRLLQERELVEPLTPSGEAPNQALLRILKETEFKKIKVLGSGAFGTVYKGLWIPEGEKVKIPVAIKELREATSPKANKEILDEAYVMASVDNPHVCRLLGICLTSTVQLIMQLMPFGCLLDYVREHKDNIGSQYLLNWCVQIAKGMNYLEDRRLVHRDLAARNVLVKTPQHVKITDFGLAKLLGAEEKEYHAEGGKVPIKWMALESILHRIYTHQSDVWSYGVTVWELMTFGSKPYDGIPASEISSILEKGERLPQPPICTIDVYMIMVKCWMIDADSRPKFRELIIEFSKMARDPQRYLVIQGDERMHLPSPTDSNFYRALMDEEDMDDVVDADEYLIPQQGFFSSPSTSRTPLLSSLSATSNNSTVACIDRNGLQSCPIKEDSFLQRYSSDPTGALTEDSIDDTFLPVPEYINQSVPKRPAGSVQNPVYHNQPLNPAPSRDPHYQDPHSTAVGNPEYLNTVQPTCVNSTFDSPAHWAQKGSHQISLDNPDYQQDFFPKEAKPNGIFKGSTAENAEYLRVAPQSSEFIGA
Chain of EGFR^L858R (P00533 25-1210 L858R): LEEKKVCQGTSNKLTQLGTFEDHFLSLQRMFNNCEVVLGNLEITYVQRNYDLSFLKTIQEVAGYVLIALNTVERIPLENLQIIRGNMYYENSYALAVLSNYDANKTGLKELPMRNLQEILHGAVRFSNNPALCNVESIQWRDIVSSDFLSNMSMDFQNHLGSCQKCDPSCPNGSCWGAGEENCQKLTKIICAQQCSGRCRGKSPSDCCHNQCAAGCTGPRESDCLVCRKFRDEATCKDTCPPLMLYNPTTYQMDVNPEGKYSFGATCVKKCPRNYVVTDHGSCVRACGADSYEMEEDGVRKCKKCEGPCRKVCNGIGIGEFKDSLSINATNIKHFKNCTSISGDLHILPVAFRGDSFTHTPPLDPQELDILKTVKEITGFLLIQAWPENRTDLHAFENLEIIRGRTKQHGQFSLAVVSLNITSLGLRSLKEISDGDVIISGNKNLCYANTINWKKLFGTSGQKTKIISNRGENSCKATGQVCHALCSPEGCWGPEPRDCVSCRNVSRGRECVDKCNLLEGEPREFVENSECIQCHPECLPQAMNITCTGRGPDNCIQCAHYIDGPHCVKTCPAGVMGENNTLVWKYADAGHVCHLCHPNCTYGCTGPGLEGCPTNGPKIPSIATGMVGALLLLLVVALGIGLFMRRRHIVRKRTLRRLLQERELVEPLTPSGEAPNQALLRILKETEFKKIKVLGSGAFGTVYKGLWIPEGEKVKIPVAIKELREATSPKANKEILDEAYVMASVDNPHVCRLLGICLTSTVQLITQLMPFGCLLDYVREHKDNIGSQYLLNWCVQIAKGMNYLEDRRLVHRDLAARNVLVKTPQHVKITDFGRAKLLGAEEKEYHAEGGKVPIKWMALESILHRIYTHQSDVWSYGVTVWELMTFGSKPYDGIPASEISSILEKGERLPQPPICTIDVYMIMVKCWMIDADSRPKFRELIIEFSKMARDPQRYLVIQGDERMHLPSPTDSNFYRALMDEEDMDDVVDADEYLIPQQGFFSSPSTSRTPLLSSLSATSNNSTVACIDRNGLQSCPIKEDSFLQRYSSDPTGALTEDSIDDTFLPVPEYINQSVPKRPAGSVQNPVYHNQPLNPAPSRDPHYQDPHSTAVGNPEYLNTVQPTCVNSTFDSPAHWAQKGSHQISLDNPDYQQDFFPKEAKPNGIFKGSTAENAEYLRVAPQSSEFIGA

`CCOC(=O)C1=C(N)N(c2ccccc2)C2=C(C(=O)CC(C)(C)C2)C1c1ccc(Cl)cc1Cl` (racemic) [10c, (±)-Ethyl 2-amino-4–(2,4-dichlorophenyl)-7,7-dimethyl-5-oxo-1-phenyl-1,4,5,6,7,8-hexahydroquinoline-3-carboxylate] gave an inhibition at 10 µM (RPMI-8226) of 92%, a GI50 (RPMI-8226; RPMI-8226, five doses 0.01-100 µM, 48 h) of 7070 nM and a GI50 (SR; five doses 0.01-100 µM, 48 h) of 1470 nM. The inhibition at 10 µM (SR) was 90%, the inhibition at 10 µM (A549/ATCC) was 73% and the GI50 (A549/ATCC; A549, five doses 0.01-100 µM, 48 h) was 1880 nM. It also gave an inhibition at 10 µM (HOP-62) of 49%, a GI50 (HOP-62; HOP-62, five doses 0.01-100 µM, 48 h) of 4880 nM and a GI50 (NCI-H322M; NCI-H322-M, five doses 0.01-100 µM, 48 h) of 7710 nM. For the same molecule, the inhibition at 10 µM (NCI-H322M) was 43%, the inhibition at 10 µM (NCI-H460) was 82% and the GI50 (NCI-H460; NCI-H460, five doses 0.01-100 µM, 48 h) was 1390 nM. The inhibition at 10 µM (HCC-2998) was 62%, the GI50 (HCC-2998; HCC-2998, five doses 0.01-100 µM, 48 h) was 2770 nM and the inhibition at 10 µM (HCT-116) was 86%. The GI50 (HCT-116; HCT-116, five doses 0.01-100 µM, 48 h) was 7890 nM, the inhibition at 10 µM (HCT-15) was 86% and the GI50 (HCT-15; HCT-15, five doses 0.01-100 µM, 48 h) was 1520 nM. It also gave an inhibition at 10 µM (HT29) of 65%, a GI50 (HT29; five doses 0.01-100 µM, 48 h) of 1980 nM and an inhibition at 10 µM (KM 12) of 81%. For the same molecule, the GI50 (KM 12; KM-12, five doses 0.01-100 µM, 48 h) was 2360 nM, the inhibition at 10 µM (SW-620) was < 10% and the GI50 (SW-620; SW-620, five doses 0.01-100 µM, 48 h) was 2900 nM. The inhibition at 10 µM (SF-539) was 67%, the GI50 (SF-539; SF-539, five doses 0.01-100 µM, 48 h) was 3780 nM and the inhibition at 10 µM (SNB-19) was 72%. It also gave a GI50 (SNB-19; SNB-19, five doses 0.01-100 µM, 48 h) of 2920 nM, an inhibition at 10 µM (MDA-MB-435) of 71% and a GI50 (MDA-MB-435; MDA-MB-435, five doses 0.01-100 µM, 48 h) of 3210 nM. It also gave an inhibition at 10 µM (SK-MEL-5) of 102%, a GI50 (SK-MEL-5; SK-MEL-5, five doses 0.01-100 µM, 48 h) of 1240 nM and an inhibition at 10 µM (UACC-257) of 65%. For the same molecule, the GI50 (UACC-257; UACC-257, five doses 0.01-100 µM, 48 h) was 2880 nM, the inhibition at 10 µM (IGROV1) was 41% and the GI50 (IGROV1; IGROV1, five doses 0.01-100 µM, 48 h) was 7970 nM. It also gave an inhibition at 10 µM (OVCAR-5) of 43%, a GI50 (OVCAR-5; OVCAR-5, five doses 0.01-100 µM, 48 h) of 7260 nM and an inhibition at 10 µM (SK-OV-3) of 66%. The GI50 (SK-OV-3; SK-OV-3, five doses 0.01-100 µM, 48 h) was 3350 nM, the GI50 (ACHN; five doses 0.01-100 µM, 48 h) was 1830 nM and the inhibition at 10 µM (ACHN) was 83%. For the same molecule, the inhibition at 10 µM (RXF 393) was 79%, the GI50 (RXF 393; RXF 393, five doses 0.01-100 µM, 48 h) was 1380 nM and the inhibition at 10 µM (SN 12C) was 79%. It also gave a GI50 (SN 12C; SN 12 C, five doses 0.01-100 µM, 48 h) of 3080 nM, an inhibition at 10 µM (PC-3) of 90% and a GI50 (PC-3; PC-3, five doses 0.01-100 µM, 48 h) of 4140 nM. It also gave an inhibition at 10 µM (MDA-MB-231) of 75%, a GI50 (MDA-MB-231; MDA-MB-231, five doses 0.01-100 µM, 48 h) of 3340 nM and an inhibition at 10 µM (T-47D) of 79%. For the same molecule, the GI50 (T-47D; five doses 0.01-100 µM, 48 h) was 1040 nM, the LC50 (50% lethal concentration) (NCI 60 cancer cell lines; Homo sapiens, 60 cell, five doses, read-out: LC50 values towards 60 cell lines) was > 100000 nM and the GI50 (NCI 60 cancer cell lines; Homo sapiens, five doses 0.01-100 µM, 48 h, read-out: GI50 range against nearly all the tested cell lines) was 1040 to 9560 nM. For the same molecule, the GI % mean (NCI 60 cancer cell lines) was 74%, the IC50 (EGFR^T790M) was 586 ± 3 nM and the IC50 (EGFR^L858R) was 623 ± 5 nM. The IC50 (EGFR^WT) was 148 ± 40 nM.

`CCOC(=O)C1=C(N)N(c2ccc(Cl)cc2)C2=C(C(=O)CC(C)(C)C2)C1c1ccc(Cl)cc1Cl` (racemic) [10d, (±)-Ethyl 2-amino-1–(4-chorophenyl)-4–(2,4-dichlorophenyl)-7,7-dimethyl-5-oxo-1-phenyl-1,4,5,6,7,8-hexahydroquinoline-3-carboxylate] was tested, and the inhibition at 10 µM (RPMI-8226) was 85%, the inhibition at 10 µM (SR) was 75% and the inhibition at 10 µM (A549/ATCC) was 48%. The inhibition at 10 µM (HOP-62) was 46%, the inhibition at 10 µM (NCI-H322M) was 29% and the inhibition at 10 µM (NCI-H460) was 49%. The inhibition at 10 µM (HCC-2998) was 23%, the inhibition at 10 µM (HCT-116) was 66% and the inhibition at 10 µM (HCT-15) was 65%. The inhibition at 10 µM (HT29) was 43%, the inhibition at 10 µM (KM 12) was 54% and the inhibition at 10 µM (SW-620) was < 10%. It also gave an inhibition at 10 µM (SF-539) of 21%, an inhibition at 10 µM (SNB-19) of 46% and an inhibition at 10 µM (MDA-MB-435) of 42%. It also gave an inhibition at 10 µM (SK-MEL-5) of 51%, an inhibition at 10 µM (UACC-257) of 43% and an inhibition at 10 µM (IGROV1) of 16%. It also gave an inhibition at 10 µM (OVCAR-5) of 17%, an inhibition at 10 µM (SK-OV-3) of 46% and an inhibition at 10 µM (ACHN) of 50%. For the same molecule, the inhibition at 10 µM (RXF 393) was 38%, the inhibition at 10 µM (SN 12C) was 47% and the inhibition at 10 µM (PC-3) was 79%. For the same molecule, the inhibition at 10 µM (MDA-MB-231) was 42%, the inhibition at 10 µM (T-47D) was 74% and the GI % mean (NCI 60 cancer cell lines) was 48%. The IC50 (EGFR^T790M) was 280 ± 1 nM, the IC50 (EGFR^L858R) was 51 ± 1 nM and the IC50 (EGFR^WT) was 97 ± 5 nM.
